# Literature values as cited in patent publication US20120322745A1, “OPTIMIZED METHOD FOR OBTAINING ACE ACTIVITY INHIBITORY PEPTIDES FROM WHEY, ACE INHIBITORY PEPTIDES AND FOOD COMPRISING THEM” (QUEIZUAR ,S.L., priority 2011, published 2012).
# Biological target: angiotensin converting enzyme (ACE)
# Settings: ACE inhibitory peptides obtained by enzymatic hydrolysis of whey proteins
row,Substance,IC50
1,ALKAWSVAR [BSA f(208-216)],3 µM
2,"ALPMH (UniProt P02754 158-162, looked up, fragment) [β-Lg f(142-146)]",521 µM
3,ALPMHIR [β-Lg (f 142-148)],42.6 µM
4,CMENSA [β-Lg f(106-111)],788 µM
5,LDAQSAPLR [β-Lg f(32-40)],635 µM
6,LKPTPEGN [β-Lg (f 46-53)],> 2700 µM
7,VGINYWLAHK [α-La f(99-108)],327 µM
8,VLDTDYK [β-Lg f(94-100)],946 µM
9,WLAHK [α-La f(104-108)],77 µM
10,"β-Lg (f 102-105): ACE inhibitory peptide, sequence YLLF, from hydrolysis with pepsin, trypsin, chemotrypsin (UniProt P02754 118-121, looked up, fragment)",172 µM
11,"β-Lg (f 122-125): ACE inhibitory peptide, sequence LVRT, from whey protein hydrolysis with thermolysin (UniProt P02754 138-141, looked up, fragment)",2470 µM
12,"β-Lg f(15-19): ACE inhibitory peptide, sequence VAGT, from hydrolysis with pepsin, trypsin, chemotrypsin",1050 µM
13,"β-Lg f(22-25): ACE inhibitory peptide, sequence LAMA, from whey protein hydrolysis with trypsin (UniProt P02754 38-41, looked up, fragment)",556 µM
14,"β-Lg f(58-61): ACE inhibitory peptide, sequence LKQW, from whey protein hydrolysis with thermolysin",34.7 µM
15,"β-Lg f(78-80): ACE inhibitory peptide, sequence IPA, from whey protein hydrolysis with proteinase k (UniProt P02754 94-96, looked up, fragment)",141 µM
16,"β-Lg f(81-83): ACE inhibitory peptide, sequence VFK, from whey protein hydrolysis with trypsin (UniProt P02754 97-99, looked up, fragment)",1030 µM
17,"β-Lg f(103-105): ACE inhibitory peptide, sequence LLF, from whey protein hydrolysis with thermolysin (UniProt P02754 119-121, looked up, fragment)",79.8 µM
